Laboratory results from ChEMBL document CHEMBL6074695, “Structural Aspects of Mycobacterium tuberculosis DNA Gyrase Targeted by Novel Bacterial Topoisomerase Inhibitors” (ACS Med Chem Lett, 2024).
Converted amounts (≈) assume the structure as drawn.

System: Mycobacterium tuberculosis
Assay type: functional, organism-based
Conditions: H37Rv, 120 h

Compound: COc1ccc2nccc(CCN3CCC(NCc4cc(F)c(Cl)c(F)c4)CC3)c2n1
- IC50: 7 nM

Compound: O=c1ccc2ncc(=O)n3c2n1C[C@H]3CN1CCC(NCc2cc3c(cn2)OCCC3)CC1 [GEPOTIDACIN]
- MIC (time 5 day): 0.86 µM (≈ 0.386 µg/mL)
